# Test results: patent US20080312147A1, “Compositions and Methods for the Regulation of Hair Growth” (NUGENE INC., priority 2007, published 2008)
# Tested on: 5-α-reductase
# Experiment: interruption of 5-α-reductase activity by copper containing peptides
# Format: biochemical
# Conditions: stated in words only; said to act by preventing binding of testosterone to the active site; no method or data given
row,Substance,interruption of the activity of 5-α-reductase
1,Cu(II)-His-Val-His,interrupt 5-α-reductase
2,Gly-His-Lys-Cu(II),interrupt the activity of 5-α-reductase
3,His-Ala-His-Cu(II),interrupt 5-α-reductase
